{"source": "ChEMBL document CHEMBL5620346", "about": "“Current scenario of pyrazole hybrids with in vivo therapeutic potential against cancers” (Eur J Med Chem, 2023)", "key": {"NCI-H1581 [1]": {"system": "NCI-H1581", "test": "Antitumor activity against human NCI-H1581 cells xenografted in BALB/c nude mouse assessed as tumor growth inhibition once daily at 10 mg/kg, ip for 24 days relative to control", "details": "NCI-H1581, 576 h, read-out: TGI"}, "NCI-H1581 [2]": {"system": "NCI-H1581", "test": "Antitumor activity against human NCI-H1581 cells xenografted in BALB/c nude mouse assessed as tumor growth inhibition once daily at 50 mg/kg, ip for 24 days relative to control", "details": "NCI-H1581, 576 h, read-out: TGI"}, "SNU-16": {"system": "SNU-16", "test": "Antiproliferative activity against human SNU-16 cells assessed as reduction in cell viability by SRB assay", "type": "functional, cell-based"}, "KG-1": {"system": "KG-1", "test": "Antiproliferative activity against human KG-1 cells assessed as reduction in cell viability by SRB assay"}, "[3]": {"test": "Cmax in CD-1 mouse at 3 mg/kg, ip measured after 24 hrs by LC-MS/MS analysis", "type": "ADME, organism-based", "details": "in vivo"}, "[4]": {"test": "Half life in CD-1 mouse at 3 mg/kg, ip measured after 24 hrs by LC-MS/MS analysis", "type": "ADME, organism-based", "details": "in vivo"}, "[5]": {"biological_target": "Vascular endothelial growth factor receptor 1 (Homo sapiens, UniProt P17948)", "sequence (P17948 whole entry)": "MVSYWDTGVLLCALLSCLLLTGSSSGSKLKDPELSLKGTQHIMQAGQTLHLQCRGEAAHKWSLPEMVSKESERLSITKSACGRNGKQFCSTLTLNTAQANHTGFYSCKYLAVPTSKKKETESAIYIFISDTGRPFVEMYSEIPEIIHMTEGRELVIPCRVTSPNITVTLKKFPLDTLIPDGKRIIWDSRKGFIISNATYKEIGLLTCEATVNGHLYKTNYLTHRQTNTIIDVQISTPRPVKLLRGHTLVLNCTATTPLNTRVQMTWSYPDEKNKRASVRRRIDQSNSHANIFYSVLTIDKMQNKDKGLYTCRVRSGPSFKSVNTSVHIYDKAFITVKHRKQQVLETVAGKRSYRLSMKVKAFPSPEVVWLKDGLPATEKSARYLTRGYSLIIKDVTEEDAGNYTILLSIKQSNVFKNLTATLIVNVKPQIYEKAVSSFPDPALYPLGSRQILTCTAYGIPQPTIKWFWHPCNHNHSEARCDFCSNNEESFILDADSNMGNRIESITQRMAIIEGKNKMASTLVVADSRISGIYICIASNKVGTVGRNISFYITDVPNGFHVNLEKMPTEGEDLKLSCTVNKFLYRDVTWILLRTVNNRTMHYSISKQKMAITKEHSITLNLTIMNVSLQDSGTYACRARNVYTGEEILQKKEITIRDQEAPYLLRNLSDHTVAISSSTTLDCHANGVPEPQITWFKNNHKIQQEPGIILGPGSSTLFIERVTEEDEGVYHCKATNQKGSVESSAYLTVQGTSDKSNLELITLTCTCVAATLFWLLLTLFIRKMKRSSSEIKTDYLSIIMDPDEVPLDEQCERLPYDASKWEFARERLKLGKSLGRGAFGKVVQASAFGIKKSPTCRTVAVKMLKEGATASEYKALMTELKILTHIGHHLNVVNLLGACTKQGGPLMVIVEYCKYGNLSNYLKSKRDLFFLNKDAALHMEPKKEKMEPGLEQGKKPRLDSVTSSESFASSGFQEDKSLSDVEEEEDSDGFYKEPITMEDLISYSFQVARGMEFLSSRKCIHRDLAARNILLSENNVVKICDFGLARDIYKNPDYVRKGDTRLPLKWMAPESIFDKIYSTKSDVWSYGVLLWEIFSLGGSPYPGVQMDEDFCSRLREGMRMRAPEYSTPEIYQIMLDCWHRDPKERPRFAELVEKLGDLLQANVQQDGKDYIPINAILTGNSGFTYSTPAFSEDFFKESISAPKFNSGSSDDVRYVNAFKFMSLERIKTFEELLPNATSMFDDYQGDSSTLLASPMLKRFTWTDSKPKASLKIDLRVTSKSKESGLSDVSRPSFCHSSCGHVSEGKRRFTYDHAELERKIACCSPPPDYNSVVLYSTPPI", "test": "Inhibition of VEGFR1 (unknown origin)"}, "[6]": {"test": "Antiproliferative activity against human UMUC14 cells assessed as reduction in cell viability by SRB assay", "type": "functional, cell-based"}, "[7]": {"biological_target": "Vascular endothelial growth factor receptor 2 (Homo sapiens, UniProt P35968)", "sequence (P35968 whole entry)": "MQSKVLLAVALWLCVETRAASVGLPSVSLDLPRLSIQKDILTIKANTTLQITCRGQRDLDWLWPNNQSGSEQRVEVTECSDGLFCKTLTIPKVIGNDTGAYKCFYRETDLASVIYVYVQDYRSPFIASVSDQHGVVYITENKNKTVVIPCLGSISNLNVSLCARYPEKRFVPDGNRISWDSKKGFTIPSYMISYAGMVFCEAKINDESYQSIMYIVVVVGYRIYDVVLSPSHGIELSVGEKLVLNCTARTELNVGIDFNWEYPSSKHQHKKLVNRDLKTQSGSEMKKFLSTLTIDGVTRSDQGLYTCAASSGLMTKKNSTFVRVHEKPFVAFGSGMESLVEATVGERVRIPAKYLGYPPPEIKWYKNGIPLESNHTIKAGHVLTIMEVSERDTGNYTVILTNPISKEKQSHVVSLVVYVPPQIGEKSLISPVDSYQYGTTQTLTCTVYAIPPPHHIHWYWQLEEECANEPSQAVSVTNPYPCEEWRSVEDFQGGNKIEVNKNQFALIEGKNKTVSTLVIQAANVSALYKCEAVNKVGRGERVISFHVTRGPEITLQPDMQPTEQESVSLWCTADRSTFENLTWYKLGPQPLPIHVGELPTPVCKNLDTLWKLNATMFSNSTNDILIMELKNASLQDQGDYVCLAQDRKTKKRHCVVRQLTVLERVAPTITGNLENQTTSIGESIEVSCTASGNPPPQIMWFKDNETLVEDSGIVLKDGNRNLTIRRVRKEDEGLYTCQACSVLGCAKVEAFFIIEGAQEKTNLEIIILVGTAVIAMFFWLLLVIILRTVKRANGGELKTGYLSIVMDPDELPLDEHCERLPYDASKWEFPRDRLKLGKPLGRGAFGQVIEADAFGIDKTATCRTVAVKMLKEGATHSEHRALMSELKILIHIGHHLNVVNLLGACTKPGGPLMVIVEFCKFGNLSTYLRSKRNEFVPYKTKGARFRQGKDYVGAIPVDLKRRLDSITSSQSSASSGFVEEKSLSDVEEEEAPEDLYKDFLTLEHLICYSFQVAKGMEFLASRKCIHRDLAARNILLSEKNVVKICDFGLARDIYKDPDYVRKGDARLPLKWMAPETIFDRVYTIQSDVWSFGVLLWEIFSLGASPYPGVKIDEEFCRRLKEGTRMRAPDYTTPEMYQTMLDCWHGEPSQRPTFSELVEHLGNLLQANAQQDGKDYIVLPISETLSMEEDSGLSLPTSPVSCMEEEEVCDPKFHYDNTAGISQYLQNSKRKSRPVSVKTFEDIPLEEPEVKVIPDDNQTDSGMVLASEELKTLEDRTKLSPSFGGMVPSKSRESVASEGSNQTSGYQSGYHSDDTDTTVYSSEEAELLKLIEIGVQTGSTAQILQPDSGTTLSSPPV", "test": "Inhibition of VEGFR2 (unknown origin)"}, "[8]": {"test": "AUC (0 to infinity) in CD-1 mouse at 3 mg/kg, ip measured after 24 hrs by LC-MS/MS analysis", "type": "ADME, organism-based", "details": "in vivo"}, "NCI-H1581 [9]": {"system": "NCI-H1581", "test": "Antiproliferative activity against human NCI-H1581 cells assessed as reduction in cell viability by SRB assay", "type": "functional, cell-based"}, "HT-29 [10]": {"system": "HT-29", "test": "Antitumor activity against human HT-29 cells xenografted in BALB/c mouse assessed as reduction in tumor growth at 50 mg/kg, po administered once daily for 14 days relative to control", "type": "functional", "details": "HT-29, 336 h, time 14 day, read-out: TGI"}, "HT-29 [11]": {"system": "HT-29", "test": "Antitumor activity against human HT-29 cells xenografted in BALB/c mouse assessed as reduction in tumor growth at 50 mg/kg, ip administered once daily for 14 days relative to control", "type": "functional", "details": "HT-29, 336 h, time 14 day, read-out: TGI"}, "MCF7": {"system": "MCF7", "test": "Antiproliferative activity against human MCF7 cells assessed as reduction in cell viability incubated for 48 hrs by MTT assay", "type": "functional, cell-based", "details": "MCF7, 48 h"}, "B16-F10 [12]": {"system": "B16-F10", "test": "Antitumor activity against mouse B16-F10 cells implanted in C57BL/6 mouse assessed tumor growth inhibition at 2.5 mg/kg, ip measured for 14 days relative to control", "type": "functional", "details": "B16-F10, 336 h, time 14 day, read-out: TGI"}, "B16-F10 [13]": {"system": "B16-F10", "test": "Antiproliferative activity against mouse B16-F10 cells assessed as reduction in cell proliferation incubated for 4 days by crystal violet based assay", "type": "functional", "details": "B16-F10, 96 h"}, "MIA PaCa-2": {"system": "MIA PaCa-2", "test": "Antiproliferative activity against human MIA PaCa-2 cells measured after 72 hrs by MTT assay", "type": "functional, cell-based", "details": "MIA PaCa-2, 72 h"}, "PANC-1": {"system": "PANC-1", "test": "Anticancer activity against human PANC-1 cells assessed as reduction in cell viability by measuring ATP level incubated for 24 hrs by CellTiter-Glo assay", "type": "functional, cell-based", "details": "PANC-1, 24 h"}, "MDA-MB-231": {"system": "MDA-MB-231", "test": "Antiproliferative activity against human MDA-MB-231 cells assessed as reduction in cell viability incubated for 48 hrs by MTT assay", "type": "functional, cell-based", "details": "MDA-MB-231, 48 h"}, "Panc02": {"system": "Panc02", "test": "Antiproliferative activity against mouse Panc02 cells measured after 72 hrs by MTT assay", "type": "functional, cell-based", "details": "Panc02, 72 h"}, "COLO357": {"system": "COLO357", "test": "Inhibition of cell growth in human COLO357 cells incubated for 72 hrs by MTT assay", "type": "functional, cell-based", "details": "COLO357, 72 h"}}, "data": [{"smiles": "Cc1ccc2oc(-c3c4c(N)n[nH]c(=O)c4nn3-c3ccc(NC(=O)/C=C/CN(C)C)cc3)c(C)c2c1", "values": [{"measurement": "inhibition in vivo at 10 mg/kg", "setting": "NCI-H1581 [1]", "result": 74.4, "unit": "%"}, {"measurement": "inhibition in vivo at 50 mg/kg", "setting": "NCI-H1581 [2]", "result": 91.6, "unit": "%"}, {"measurement": "IC50", "setting": "SNU-16", "result": "< 0.3", "unit": "nM"}, {"measurement": "IC50", "setting": "KG-1", "result": 43, "unit": "nM"}, {"measurement": "Cmax", "setting": "[3]", "result": 282, "unit": "ng/mL"}, {"measurement": "half-life", "setting": "[4]", "result": 3.7, "unit": "h"}, {"measurement": "IC50", "setting": "[5]", "result": 3, "unit": "nM"}, {"measurement": "IC50", "setting": "[6]", "result": 43, "unit": "nM"}, {"measurement": "IC50", "setting": "[7]", "result": 1.9, "unit": "nM"}, {"measurement": "AUC", "setting": "[8]", "result": 704, "unit": "ng·h/mL"}, {"measurement": "IC50", "setting": "NCI-H1581 [9]", "result": 43, "unit": "nM"}]}, {"smiles": "Cc1ccc(C2CC(c3ccc(F)cc3)=NN2C(=O)CN2C(=O)CCC2=O)cc1", "note": "(stereo unspecified)", "values": [{"measurement": "inhibition in vivo at 50 mg/kg", "setting": "HT-29 [10]", "result": 60, "unit": "%"}, {"measurement": "inhibition in vivo at 50 mg/kg", "setting": "HT-29 [11]", "result": 66, "unit": "%"}, {"measurement": "IC50", "setting": "MCF7", "result": 780, "unit": "nM"}]}, {"smiles": "Clc1ccccc1C(c1ccccc1)(c1ccc(CCC[P+](c2ccccc2)(c2ccccc2)c2ccccc2)cc1)n1cccn1", "note": "(stereo unspecified)", "values": [{"measurement": "inhibition in vivo at 2.5 mg/kg", "setting": "B16-F10 [12]", "result": 60, "unit": "%"}, {"measurement": "IC50", "setting": "B16-F10 [13]", "result": 1310, "unit": "nM"}, {"measurement": "IC50", "setting": "MIA PaCa-2", "result": 1310, "unit": "nM"}, {"measurement": "IC50", "setting": "PANC-1", "result": 1310, "unit": "nM"}, {"measurement": "IC50", "setting": "MDA-MB-231", "result": 1310, "unit": "nM"}, {"measurement": "IC50", "setting": "Panc02", "result": 1310, "unit": "nM"}, {"measurement": "IC50", "setting": "COLO357", "result": 1310, "unit": "nM"}]}]}
